Laboratory results reported in US10357514B2, “Treatment of cancer using anti-CD19 Chimeric Antigen Receptor” (The Trustees of the University of Pennsylvania, priority 2014, dated 2019).
“Also recorded” adds a separate entry of the source. Like-named read-outs stand apart in the source and are kept apart here.

Tests used:
[1] = system: 3 influenza vaccine strains; assay: Primary endpoint: HI GMT ratio relative to placebo in at least 2 out of 3 influenza vaccine strains; assay type: in vivo, human; conditions: for primary endpoint (>=1.2-fold GMT increase relative to placebo in at least 2 of 3 strains): ITT population
Description: The primary analysis of geometric mean titer ratios was done using a normal Bayesian regression model with non-informative priors. This model was fitted to each antibody titer on the log scale. The primary outcome in each model was the Day 84 measurement. The Day 63 measurement was included in the outcome vector. The model fitted using SAS 9.2 proc mixed with the prior statement. The covariance structure of the matrix was considered as unstructured (option type=UN). A flat prior was used. For the secondary analysis of seroconversion rates, logistic regression was used.
The intention to treat population was defined as all subjects who received at least one full dose of study drug and who had no major protocol deviations impacting efficacy data. 199 out of the total of 218 subjects enrolled in the study were in the intention to treat population.
The ability of RAD001 to improve immune function in elderly volunteers was evaluated by measuring the serologic response to the 2012 seasonal influenza vaccine. The hemagglutination inhibition (HI) geometric mean titers (GMT) to each of the 3 influenza vaccine strains at baseline and 4 weeks after influenza vaccination are provided in Table 10. The primary analysis variable was the HI GMT ratio (4 weeks post vaccination/baseline). […] This endpoint was chosen because a 1.2-fold increase in the influenza GMT ratio induced by the MF-59 vaccine adjuvant was associated with a decrease in influenza illness (Iob, A et al. (2005) Epidemiol Infect 133:687-693).
Elderly volunteers >=65 years of age were randomized to one of the 3 RAD001 treatment groups (50 subjects per arm) or placebo (20 subjects per arm). […] Response to influenza vaccination was assessed by measuring the geometric mean titers (GMTs) by hemagglutination inhibition assay to the 3 influenza strains (H1N1, H3N2 and B influenza subtypes) in the influenza vaccine 4 weeks after vaccination. […] Antibody titers to 7 of the serotypes were measured in our subjects.

[2] = Energy and exercise questionnaires one year after dosing; assay type: in vivo, human; conditions: 0.5 mg daily cohort
[3] = cited from earlier work
P70 S6K = assay: Inhibition of P70 S6K activity in HeLa cells in vitro; conditions: Homo sapiens, read-out: % P70 S6K inhibition
[4] = Adverse event assessment in elderly volunteers, randomized placebo-controlled trial; conditions: for Treatment-related AE incidence: Blood cholesterol increased / Treatment-related AE incidence: Conjunctivitis / Treatment-related AE incidence: Diarrhea / Treatment-related AE incidence: Dry mouth / Treatment-related AE incidence: Dyspepsia / Treatment-related AE incidence: Erythema / Treatment-related AE incidence: Fatigue / Treatment-related AE incidence: Headache / Treatment-related AE incidence: Insomnia / Treatment-related AE incidence: Limb discomfort / Treatment-related AE incidence: Low density lipoprotein increased / Treatment-related AE incidence: Mouth ulceration / Treatment-related AE incidence: Mucosal inflammation / Treatment-related AE incidence: Neutropenia / Treatment-related AE incidence: Oral pain / Treatment-related AE incidence: Paresthesia oral / Treatment-related AE incidence: Pruritus / Treatment-related AE incidence: Stomatitis / Treatment-related AE incidence: Thrombocytopenia / Treatment-related AE incidence: Tongue ulceration / Treatment-related AE incidence: Urinary tract infection / Treatment-related AEs: Patients with AE(s) / Treatment-related AEs: Total AE(s): N = 53

Q: Which results are given for CO[C@H]1C[C@@H]2CC[C@@H](C)[C@@](O)(O2)C(=O)C(=O)N2CCCC[C@H]2C(=O)O[C@H]([C@H](C)C[C@@H]2CC[C@@H](OCCO)[C@H](OC)C2)CC(=O)[C@H](C)/C=C(\C)[C@@H](O)[C@@H](OC)C(=O)[C@H](C)C[C@H](C)/C=C/C=C/C=C/1C [RAD001, (1R,9S,12S,15R,16E,18R,19R,21R,23S,24E,26E,28E,30S,32S,35R)-1,18-dihydroxy-12-{(1R)-2-[(1S,3R,4R)-4-(2-hydroxyethoxy)-3-methoxycyclohexyl]-1-methylethyl}-19,30-dimethoxy-15,17,21,23,29,35-hexamethyl-11,36-dioxa-4-aza-tricyclo[30.3.1.04,9]hexatriaconta-16,24,26,28-tetraene-2,3,10,14,20-pentaone]?
A: primary endpoint (>=1.2-fold GMT increase relative to placebo in at least 2 of 3 strains) ([1]; 0.5 mg daily or 5 mg weekly): met the GMT primary endpoint; primary endpoint (>=1.2-fold GMT increase relative to placebo in at least 2 of 3 strains) ([1]; 20 mg weekly): not higher dose (20 mg weekly) cohort met the primary endpoint; also recorded: unlike the 20 mg weekly dose, met the GMT primary endpoint; increase in titers in subgroup versus ITT population ([1]; subjects with low baseline influenza titers (<=1:40)): greater RAD001-associated increase in titers; self-reported energy and exercise ability compared to placebo [2]: increased energy and exercise ability; average RAD001 trough level (5 mg weekly, lower limit of quantification 0.3 ng/ml): below detection limits; trough level of study dosing regimens lower than approved transplant and oncology regimens (dosing regimens used in the immunization study): 3-20 fold; trough level of RAD001 ([3]; 10 mg daily oncology dosing regimen): approximately 20 ng/ml; trough level of RAD001 ([3]; 0.75-1.5 mg bid transplant dosing regimen): approximately 3 ng/ml; inhibition at 6 pM (P70 S6K): 0%; inhibition at 32 pM (P70 S6K): 18%; inhibition at 0.0008 µM (P70 S6K): 62%; inhibition at 0.004 µM (P70 S6K): 90%; inhibition at 0.02 µM (P70 S6K): 95%; Treatment-related AE incidence: Blood cholesterol increased ([4]; 0.5 mg daily): 2 (3.8%) n (%); Treatment-related AE incidence: Conjunctivitis ([4]; 0.5 mg daily): 0 n (%); Treatment-related AE incidence: Diarrhea ([4]; 0.5 mg daily): 1 (1.9%) n (%); Treatment-related AE incidence: Dry mouth ([4]; 0.5 mg daily): 0 n (%); Treatment-related AE incidence: Dyspepsia ([4]; 0.5 mg daily): 0 n (%); Treatment-related AE incidence: Erythema ([4]; 0.5 mg daily): 0 n (%); Treatment-related AE incidence: Fatigue ([4]; 0.5 mg daily): 0 n (%); Treatment-related AE incidence: Headache ([4]; 0.5 mg daily): 0 n (%); Treatment-related AE incidence: Insomnia ([4]; 0.5 mg daily): 1 (1.9%) n (%); Treatment-related AE incidence: Limb discomfort ([4]; 0.5 mg daily): 0 n (%); Treatment-related AE incidence: Low density lipoprotein increased ([4]; 0.5 mg daily): 2 (3.8%) n (%); Treatment-related AE incidence: Mouth ulceration ([4]; 0.5 mg daily): 6 (11.3%) n (%); Treatment-related AE incidence: Mucosal inflammation ([4]; 0.5 mg daily): 0 n (%); Treatment-related AE incidence: Neutropenia ([4]; 0.5 mg daily): 0 n (%); Treatment-related AE incidence: Oral pain ([4]; 0.5 mg daily): 0 n (%); Treatment-related AE incidence: Paresthesia oral ([4]; 0.5 mg daily): 2 (3.8%) n (%); Treatment-related AE incidence: Pruritus ([4]; 0.5 mg daily): 0 n (%); Treatment-related AE incidence: Stomatitis ([4]; 0.5 mg daily): 0 n (%); Treatment-related AE incidence: Thrombocytopenia ([4]; 0.5 mg daily): 0 n (%); Treatment-related AE incidence: Tongue ulceration ([4]; 0.5 mg daily): 3 (5.7%) n (%); Treatment-related AE incidence: Urinary tract infection ([4]; 0.5 mg daily): 0 n (%); Treatment-related AEs: Patients with AE(s) ([4]; 0.5 mg daily): 22 (41.5%) n (%); Treatment-related AEs: Total AE(s) ([4]; 0.5 mg daily): 35 n (%); Treatment-related AE incidence: Blood cholesterol increased ([4]; 5 mg weekly): 2 (3.8%) n (%); Treatment-related AE incidence: Conjunctivitis ([4]; 5 mg weekly): 2 (3.8%) n (%); Treatment-related AE incidence: Diarrhea ([4]; 5 mg weekly): 4 (7.5%) n (%); Treatment-related AE incidence: Dry mouth ([4]; 5 mg weekly): 0 n (%); Treatment-related AE incidence: Dyspepsia ([4]; 5 mg weekly): 3 (5.7%) n (%); Treatment-related AE incidence: Erythema ([4]; 5 mg weekly): 2 (3.8%) n (%); Treatment-related AE incidence: Fatigue ([4]; 5 mg weekly): 2 (3.8%) n (%); Treatment-related AE incidence: Headache ([4]; 5 mg weekly): 2 (3.8%) n (%); Treatment-related AE incidence: Insomnia ([4]; 5 mg weekly): 2 (3.8%) n (%); Treatment-related AE incidence: Limb discomfort ([4]; 5 mg weekly): 2 (3.8%) n (%); Treatment-related AE incidence: Low density lipoprotein increased ([4]; 5 mg weekly): 1 (1.9%) n (%); Treatment-related AE incidence: Mouth ulceration ([4]; 5 mg weekly): 2 (3.8%) n (%); Treatment-related AE incidence: Mucosal inflammation ([4]; 5 mg weekly): 0 n (%); Treatment-related AE incidence: Neutropenia ([4]; 5 mg weekly): 0 n (%); Treatment-related AE incidence: Oral pain ([4]; 5 mg weekly): 2 (3.8%) n (%); Treatment-related AE incidence: Paresthesia oral ([4]; 5 mg weekly): 0 n (%); Treatment-related AE incidence: Pruritus ([4]; 5 mg weekly): 2 (3.8%) n (%); Treatment-related AE incidence: Stomatitis ([4]; 5 mg weekly): 0 n (%); Treatment-related AE incidence: Thrombocytopenia ([4]; 5 mg weekly): 0 n (%); Treatment-related AE incidence: Tongue ulceration ([4]; 5 mg weekly): 1 (1.9%) n (%); Treatment-related AE incidence: Urinary tract infection ([4]; 5 mg weekly): 0 n (%); Treatment-related AEs: Patients with AE(s) ([4]; 5 mg weekly): 20 (37.7%) n (%); Treatment-related AEs: Total AE(s) ([4]; 5 mg weekly): 46 n (%); Treatment-related AE incidence: Blood cholesterol increased ([4]; 20 mg weekly): 2 (3.8%) n (%); Treatment-related AE incidence: Conjunctivitis ([4]; 20 mg weekly): 0 n (%); Treatment-related AE incidence: Diarrhea ([4]; 20 mg weekly): 1 (1.9%) n (%); Treatment-related AE incidence: Dry mouth ([4]; 20 mg weekly): 2 (3.8%) n (%); Treatment-related AE incidence: Dyspepsia ([4]; 20 mg weekly): 2 (3.8%) n (%); Treatment-related AE incidence: Erythema ([4]; 20 mg weekly): 0 n (%); Treatment-related AE incidence: Fatigue ([4]; 20 mg weekly): 4 (7.5%) n (%); Treatment-related AE incidence: Headache ([4]; 20 mg weekly): 9 (17.0%) n (%); Treatment-related AE incidence: Insomnia ([4]; 20 mg weekly): 1 (1.9%) n (%); Treatment-related AE incidence: Limb discomfort ([4]; 20 mg weekly): 0 n (%); Treatment-related AE incidence: Low density lipoprotein increased ([4]; 20 mg weekly): 2 (3.8%) n (%); Treatment-related AE incidence: Mouth ulceration ([4]; 20 mg weekly): 9 (17.0%) n (%); Treatment-related AE incidence: Mucosal inflammation ([4]; 20 mg weekly): 2 (3.8%) n (%); Treatment-related AE incidence: Neutropenia ([4]; 20 mg weekly): 3 (5.7%) n (%); Treatment-related AE incidence: Oral pain ([4]; 20 mg weekly): 1 (1.9%) n (%); Treatment-related AE incidence: Paresthesia oral ([4]; 20 mg weekly): 0 n (%); Treatment-related AE incidence: Pruritus ([4]; 20 mg weekly): 1 (1.9%) n (%); Treatment-related AE incidence: Stomatitis ([4]; 20 mg weekly): 2 (3.8%) n (%); Treatment-related AE incidence: Thrombocytopenia ([4]; 20 mg weekly): 2 (3.8%) n (%); Treatment-related AE incidence: Tongue ulceration ([4]; 20 mg weekly): 0 n (%); Treatment-related AE incidence: Urinary tract infection ([4]; 20 mg weekly): 2 (3.8%) n (%); Treatment-related AEs: Patients with AE(s) ([4]; 20 mg weekly): 27 (50.9%) n (%); Treatment-related AEs: Total AE(s) ([4]; 20 mg weekly): 109 n (%); tolerability ([4]; 6 weeks, particularly the 0.5 mg daily and 5 mg weekly dosing regimens): well tolerated; deaths during the study ([4]; all cohorts): No deaths; severe AEs assessed as related to RAD001 ([4]; mouth ulcers, subject treated with 20 mg weekly): one
